According to ChEMBL document CHEMBL5244223, “l,8-Naphthalimide based DNA intercalators and anticancer agents. A systematic review from 2007 to 2017” (Eur J Med Chem, 2018):

How the values were obtained:
[1] = Cytotoxicity against human QSG7701 cells assessed as inhibition of cell growth incubated for 48 hrs by MTT assay; format: toxicity, cell-based
Bel-7402 = assay: Cytotoxicity against human Bel-7402 cells assessed as inhibition of cell growth incubated for 48 hrs by MTT assay; format: functional, cell-based; conditions: Bel-7402, 48 h
Candida albicans = assay: Antifungal activity against Candida albicans MTCC 227 assessed as zone of inhibition at 100 ug/ml by well diffusion assay; format: functional; conditions: read-out: IZ
Staphylococcus aureus = assay: Antibacterial activity against Staphylococcus aureus MTCC 96 assessed as zone of inhibition at 50 ug/ml by well diffusion assay; format: functional; conditions: read-out: IZ
[2] = test system: Staphylococcus epidermidis; assay: Antibacterial activity against Staphylococcus epidermidis MTCC 435 assessed as zone of inhibition at 50 ug/ml by well diffusion assay; format: functional; conditions: read-out: IZ
Escherichia coli = assay: Antibacterial activity against Escherichia coli MTCC 443 assessed as zone of inhibition at 50 ug/ml by well diffusion assay; format: functional; conditions: read-out: IZ
Aspergillus niger = assay: Antifungal activity against Aspergillus niger MTCC 282 assessed as zone of inhibition at 100 ug/ml by well diffusion assay; format: functional; conditions: read-out: IZ
Rhizopus arrhizus = assay: Antifungal activity against Rhizopus oryzae MTCC 262 assessed as zone of inhibition at 100 ug/ml by well diffusion assay; format: functional; conditions: read-out: IZ
Saccharomyces cerevisiae = assay: Antifungal activity against Saccharomyces cerevisiae MTCC 36 assessed as zone of inhibition at 100 ug/ml by well diffusion assay; format: functional; conditions: read-out: IZ
Pseudomonas aeruginosa = assay: Antibacterial activity against Pseudomonas aeruginosa MTCC 741 assessed as zone of inhibition at 50 ug/ml by well diffusion assay; format: functional; conditions: read-out: IZ
SMMC-7721 = assay: Antiproliferative activity against human SMMC-7721 cells assessed as inhibition of cell proliferation incubated for 48 hrs by MTT assay; format: functional, cell-based; conditions: SMMC-7721, 48 h
MCF7 = assay: Antiproliferative activity against human MCF7 cells assessed as inhibition of cell proliferation incubated for 48 hrs by MTT assay; format: functional, cell-based; conditions: MCF7, 48 h
HeLa = assay: Antiproliferative activity against human HeLa cells assessed as inhibition of cell proliferation incubated for 48 hrs by MTT assay; format: functional, cell-based

Compound | IC50 at 48 h [1] | IC50 (Bel-7402) | zone of inhibition at 50 µg/mL (Staphylococcus aureus) | zone of inhibition at 50 µg/mL [2] | zone of inhibition at 50 µg/mL (Escherichia coli) | zone of inhibition at 50 µg/mL (Pseudomonas aeruginosa) | IC50 (SMMC-7721) | IC50 (MCF7) | IC50 (HeLa) | further results
NCCCCNCCCCNCCCCN1C(=O)c2cccc3cc(N)cc(c23)C1=O | > 50000 nM | 1060 nM |  |  |  |  |  |  |  | 
NCCCCNCCCCNCCCCN1C(=O)c2cccc3c(Cl)ccc(c23)C1=O | > 50000 nM | 1060 nM |  |  |  |  |  |  |  | 
NCCCNCCCCNCCCN1C(=O)c2cccc3c(Cl)ccc(c23)C1=O | > 50000 nM | 1060 nM |  |  |  |  |  |  |  | 
CCC1=C(C(=O)OC)C(CN2C(=O)c3cccc4cccc(c34)C2=O)NC(=S)N1 (configuration not stated) |  |  | 15 mm | 15 mm | 12 mm | 12 mm |  |  |  | zone of inhibition at 100 µg/mL (Candida albicans): 12 mm; zone of inhibition at 100 µg/mL (Aspergillus niger): 12 mm; zone of inhibition at 100 µg/mL (Rhizopus arrhizus): 12 mm; zone of inhibition at 100 µg/mL (Saccharomyces cerevisiae): 12 mm
CCN(CC)CCN1C(=O)c2cccc3cc(-n4ccnn4)cc(c23)C1=O |  |  |  |  |  |  | 300 nM | 300 nM | 300 nM | 
NCCCCNCCCCNCCCN1C(=O)c2cccc3cccc(c23)C1=O | > 50000 nM | 1060 nM |  |  |  |  |  |  |  | 
CN(C)CCN1C(=O)c2cccc3cc(-n4cc(-c5ccccc5)nn4)cc(c23)C1=O |  |  |  |  |  |  | 300 nM | 300 nM | 300 nM | 
O=C1c2cccc3cc(-n4ccnn4)cc(c23)C(=O)N1CCO |  |  |  |  |  |  | 300 nM | 300 nM | 300 nM | 
CCCC1=C(C(=O)OC)C(CN2C(=O)c3cccc4cccc(c34)C2=O)NC(=O)N1 (configuration not stated) |  |  | 15 mm | 15 mm | 12 mm | 12 mm |  |  |  | zone of inhibition at 100 µg/mL (Candida albicans): 12 mm; zone of inhibition at 100 µg/mL (Aspergillus niger): 12 mm; zone of inhibition at 100 µg/mL (Rhizopus arrhizus): 12 mm; zone of inhibition at 100 µg/mL (Saccharomyces cerevisiae): 12 mm
NCCCNCCCCNCCCN1C(=O)c2cccc3cc([N+](=O)[O-])cc(c23)C1=O | > 50000 nM | 1060 nM |  |  |  |  |  |  |  | 
CCOC(=O)C1=C(CC)NC(=O)NC1CN1C(=O)c2cccc3cccc(c23)C1=O (configuration not stated) |  |  | 15 mm | 15 mm | 12 mm | 12 mm |  |  |  | zone of inhibition at 100 µg/mL (Candida albicans): 12 mm; zone of inhibition at 100 µg/mL (Aspergillus niger): 12 mm; zone of inhibition at 100 µg/mL (Rhizopus arrhizus): 12 mm; zone of inhibition at 100 µg/mL (Saccharomyces cerevisiae): 12 mm
CCCC1=C(C(=O)OC)C(CN2C(=O)c3cccc4cccc(c34)C2=O)NC(=S)N1 (configuration not stated) |  |  | 15 mm | 15 mm | 12 mm | 12 mm |  |  |  | zone of inhibition at 100 µg/mL (Candida albicans): 12 mm; zone of inhibition at 100 µg/mL (Aspergillus niger): 12 mm; zone of inhibition at 100 µg/mL (Rhizopus arrhizus): 12 mm; zone of inhibition at 100 µg/mL (Saccharomyces cerevisiae): 12 mm
NCCCCNCCCCNCCCCN1C(=O)c2cccc3cccc(c23)C1=O | > 50000 nM | 1060 nM |  |  |  |  |  |  |  | 
O=C1c2cccc3cc(-n4cc(-c5ccccc5)nn4)cc(c23)C(=O)N1CCN1CCNCC1 |  |  |  |  |  |  | 300 nM | 300 nM | 300 nM | 
CCCCN1C(=O)c2cccc3cc(-n4ccnn4)cc(c23)C1=O |  |  |  |  |  |  | 300 nM | 300 nM | 300 nM | 
CN[C@@H]1[C@H](O[C@H]2[C@H](O[C@H]3[C@H](O)[C@@H](O)[C@H](N=C(N)N)[C@@H](O)[C@@H]3N=C(N)N)O[C@@H](C)[C@]2(O)C=O)O[C@@H](CO)[C@H](O)[C@H]1O [STREPTOMYCIN] |  |  | 21 mm | 23 mm | 29 mm | 24 mm |  |  |  | 
CCCCN1C(=O)c2cccc3cc(-n4cc(-c5ccccc5)nn4)cc(c23)C1=O |  |  |  |  |  |  | 300 nM | 300 nM | 300 nM | 
CCN(CC)CCN1C(=O)c2cccc3cc(-n4cc(-c5ccccc5)nn4)cc(c23)C1=O |  |  |  |  |  |  | 300 nM | 300 nM | 300 nM | 
CCC1=C(C(=O)OC(F)(F)F)C(CN2C(=O)c3cccc4cccc(c34)C2=O)NC(=O)N1 (configuration not stated) |  |  | 15 mm | 15 mm | 12 mm | 12 mm |  |  |  | zone of inhibition at 100 µg/mL (Candida albicans): 12 mm; zone of inhibition at 100 µg/mL (Aspergillus niger): 12 mm; zone of inhibition at 100 µg/mL (Rhizopus arrhizus): 12 mm; zone of inhibition at 100 µg/mL (Saccharomyces cerevisiae): 12 mm
